Results from patent publication US20250049957A1, “CSF TRANSPORT PATHWAY FOR DELIVERY OF AGENTS TO INNER EAR” (University of Rochester, priority 2021, published 2025).
“Also recorded” adds a separate entry of the source.

What was measured:
[1] = mouse, in vivo
Experimental: Briefly, mice were anesthetized with a mixture of Ketamine/Xylazine (100 mg/kg, 10 mg/kg, respectively), after depth of anesthesia was confirmed by the cessation of reflexes, the incision area was properly shaved and sterilized with the aid of ethanol 70% swabs (Vitrex Medical A/S Herlev, DK), followed by iodine solution (Povidone Iodine 7.5% Henry Schein, Melville, NY, USA) applicated using cotton swabs. Before the onset of surgery, analgesics were applied, Lidocaine (0.05 ml, 0.2 mg/ml) was applied in the incision site and Buprenorphine (0.05 mg/kg) injected subcutaneously for post-surgical analgesia. After performing the skin incision around the occipital crest, the neck muscles were separated to reveal the CM underneath. […]
Immediately after the CM cannulation procedure, animals were moved to MRI scanner and head movement during scanning was minimized by restraining the animals on an MR-compatible stereotactic holder with ear bars. Body temperature was maintained at 37±0.5° C. with a thermostatically controlled waterbed and monitored, along with the respiratory rate by an MR compatible remote monitoring system (SA Instruments, NY, USA). […] Every 3D-CISS image was calculated as a maximum intensity projection from 4 realigned 3D-TrueFISP volumes with 4 orthogonal phase encoding directions (TR/TE 3.9/1.95 ms, Nex 2, FA 50°, FOV 19.2×12.8×12.8 mm, Matrix 192×128×128, BW 150 kHz). […]

[2] = CT live imaging of CSF tracer after intracisternal infusion, with dispersion model; assay type: in vivo, mouse
Experimental: During the CM cannulation procedure a custom-made head bar was fixed on the top of the animal skull. The head bar was designed to minimize undesired movements during the image acquisition (Yoshida et al., 2016), and fixed to an animal holder. […] Animal's respiration was monitored by using Biovet software. CT scans were performed with the Vector4CT system (MILabs, Utrecht, Netherlands) and scanning of the entire mouse head was performed in 4.56 min at an isotropic spatial resolution of 20 μm. The time series CT scanning protocol comprised one baseline scan (4.5 min) followed by intracisternal infusion of Omnipaque (350 mg I/ml, 1 μL/min, 10 μL, GE healthcare). Scans continued over 6 measurements (30 min) after intracisternal infusion of Omnipaque.
The time-intensity data was extracted using ITK snap with the ROIs described above after background subtraction and then normalized to maximal cisterna magna intensity. Dimensions of cochlear aqueduct were measured using the #X feature in ITK snap for #four animals. Distances between ROIs were calculated using their spatial coordinates.
To solve the equation (#ref), inventors implemented a simple finite difference scheme in Python (#ref) using NumPy and Scipy (#ref). Estimation of the dispersion coefficient was achieved by minimizing the L2-norm prediction error, using Scipy (#ref) E: […]

Time activity curves for tracer influx in mice lacking aqp4 [1] | Time to reach 50 max [1] | SMILES | Tracer concentration in scala vestibuli or cochlear nerve (CT) ([2]; during the 30 min of scanning) | Tracer dispersal into scala tympani (CT) ([2]; intracisternal delivery, 30 min of scanning)
did not differ from wild type animals | significantly higher in the cochlea | O=C([O-])CN1CCN(CC(=O)[O-])CCN([C@H](CO)[C@H](O)CO)CCN(CC(=O)[O-])CC1.[Gd+3] (racemic) [Gadovist, gadobutrol] |  | 
 |  | CC(=O)N(CC(O)CO)c1c(I)c(C(=O)NCC(O)CO)c(I)c(C(=O)NCC(O)CO)c1I (stereo not shown) [Omnipaque] | No clear rise; also recorded: no significant tracer arrives | reaches the base and middle region of the scala tympani; also recorded: moves into the base of scala tympani
